Experimental data: PMC8584173, “The Cytotoxic Effect of Copper (II) Complexes with Halogenated 1,3-Disubstituted Arylthioureas on Cancer and Bacterial Cells” (International Journal of Molecular Sciences, 2021)

How the values were obtained:
[1] = test system: S. aureus NCTC 4163; assay: MIC, twofold serial microdilution; type: cell-based, Staphylococcus aureus; conditions: S. aureus NCTC 4163, 18 h, 35 °C
Protocol: (§1) The antimicrobial activity of the compounds was tested on Gram-positive bacteria (Staphylococcus aureus NCTC 4163, Staphylococcus aureus ATCC 25923, Staphylococcus aureus ATCC 6538, Staphylococcus aureus ATCC 29213, Staphylococcus epidermidis ATCC 12228, Staphylococcus epidermidis ATCC 35984), Gram-negative rods (Escherichia coli ATCC 10538, Escherichia coli ATCC 25922, Pseudomonas aeruginosa ATCC 15442, Pseudomonas aeruginosa ATCC 27863) and yeasts (Candida albicans ATCC 10231, Candida albicans ATCC 90028, Candida parapsilosis ATCC 22019). Hospital methicillin-resistant strains of Staphylococcus aureus and Staphylococcus epidermidis were obtained from the collection of the Department of Pharmaceutical Microbiology, Medical University of Warsaw, Poland.
(§2) Antifungal activities were assessed using Mueller–Hinton agar + 2% glucose and 0.5 µg/mL methylene blue dye medium. Sterile filter paper discs (9 mm diameter, Whatman Number 3 chromatography paper) were dripped with tested compound solutions (in dimethylsulfoxide, DMSO) to load 400 μg of a given compound per disc. Dry discs were placed on the surface of appropriate agar medium. The results (diameter of the growth inhibition zone) were read after 18 h of incubation at 35 °C. Minimal inhibitory concentration (MIC) was tested by the twofold serial microdilution method (in 96-well microtiter plates) using Mueller–Hinton broth medium (Beckton Dickinson) for bacteria or RPMI-1640 medium for Candida species, according to CLSI guidelines. The stock solution of tested agent was prepared in DMSO and diluted in sterile water. […] The final inoculum of all studied microorganisms was 10^5 CFU/ mL^−1 (colony forming units per ml). Minimal inhibitory concentrations (the lowest concentration of a tested agent that prevents visible growth of a microorganism) were read after 18 h (bacteria) or 24 h (yeasts) of incubation at 35 °C.

[2] = test system: S. aureus ATCC 29213; assay: MIC, twofold serial microdilution; type: cell-based, Staphylococcus aureus; conditions: S. aureus ATCC 29213, 18 h, 35 °C
Protocol: as §1, §2

[3] = test system: S. aureus ATCC 6538; assay: MIC, twofold serial microdilution; type: cell-based, Staphylococcus aureus; conditions: S. aureus ATCC 6538, 18 h, 35 °C
Protocol: as §1, §2

[4] = test system: S. aureus ATCC 25923; assay: MIC, twofold serial microdilution; type: cell-based, Staphylococcus aureus; conditions: S. aureus ATCC 25923, 18 h, 35 °C
Protocol: as §1, §2

[5] = test system: S. epidermidis ATCC 35984; assay: MIC, twofold serial microdilution; type: cell-based, Staphylococcus epidermidis; conditions: S. epidermidis ATCC 35984, 18 h, 35 °C
Protocol: as §1, §2

[6] = test system: HaCaT (human immortal keratinocyte cell line); assay: MTT cytotoxicity assay, HaCaT; type: cell-based; conditions: HaCaT normal cells, 72 h
Protocol: (§3) The human primary (SW480), metastatic (SW620) colon cancer, metastatic prostate cancer (PC3) and human immortal keratinocyte (HaCaT) cell lines were purchased from the American Type Culture Collection (ATCC, Rockville, USA). The cells were cultured in medium according to protocols (MEM for SW480 and SW620, RPMI 1640 for PC3 and DMEM for HaCaT cells) supplemented with 10% fetal bovine serum (FBS), penicillin (100 U/mL) and streptomycin (100 μg/mL) and cultured in 37 °C/ 5% CO2 humidified incubator. The cells were cultured until appropriate confluence was achieved (80–90%). Next, they were harvested by treatment with 0.25% trypsin (Gibco Life Technologies, USA) and used for studies.
(§4) Cells without studied compounds in medium were used as a control.
(§5) The cell viability was assessed by determination of MTT salt (3-(4,5-dimethylthiazol-2-yl)-2,5-diphenyltetrazolium bromide) conversion by mitochondrial dehydrogenase. MTT assay was performed as previously described. Experiments were repeated three times. Cell viability was presented as a percentage of MTT reduction in the treated cells versus the control cells. Number of viable cells cultured without studied compounds was assumed to be 100%. Decreased relative MTT level means decreased cell viability. Thiourea complexes with the highest cytotoxic potential assessed by MTT determination (with the lowest IC50) were chosen for subsequent assessments of cytotoxicity mechanisms.

[7] = test system: SW480 (human primary colon cancer); assay: MTT cytotoxicity assay, SW480; type: cell-based; conditions: SW480, 72 h
Protocol: as §3, §4, §5

[8] = test system: Peroxiredoxin-4 (PRDX4_HUMAN); assay: LC–MS proteome analysis, PRDX4; type: cell-based, Homo sapiens; conditions: for Protein Intensity, % (PRDX4): IC50 concentration, % of control
Protocol: Enzymes involved in oxidoreductive potential were analyzed in the cell lysates obtained after treatment cells with selected conjugates for 24 h. Cells were washed with phosphate-buffered saline (PBS) and harvested, then centrifuged at 1000× g for 10 min. Then, lysis buffer (containing protease inhibitor, 1% RIPA Lysis and Extraction Buffer (ThermoFisher)) and cold PBS were added, and samples were sonicated three times in ice bath. Next, the cell lysates were centrifuged at 14,000× g at 4 °C for 15 min, and then supernatants were stored at […] before use. Protein concentration was measured by the Bradford method.
Normalized protein concentrations (5 µg) from cell lysate were precipitated by ice cold (–20 °C) acetonitrile (ACN, Merck, in ratio 1:4). Then, samples were centrifuged (–9 °C, 30 min., 18,000× g), the supernatant was discarded and ACN excess was evaporated using a vacuum centrifuge (5 min., room temp.). Protein pellet was dissolved in 40 mM ammonium bicarbonate. An amount of 500 mM dithiothreitol (DTT, with final concentration 20 mM) and 1 M iodoacetamide (IAA, with final concentration 40 mM) were used for reduction and alkylation processes. After 16 h of incubation in 37 °C with Trypsin Gold (Promega), digested protein samples were diluted with 0.1% formic acid (ThermoFisher) and centrifuged (+2 °C, 30 min, 18,000× g).
LC–MS analysis was carried out with the use of nanoUHPLC (nanoElute, Bruker) coupled by CaptiveSpray (Bruker) to ESI-Q-TOF mass spectrometer (Compact, Bruker). Two-column separation method was used, i.e., pre-column (300 µm × 5 mm, C18 PepMap 100, 5 µm, 100Å, Thermo Scientific) and Aurora separation column with CSI fitting (75 µm × 250 mm, C18 1.6 µm) in gradient 2% B to 35% B in 90 min with the 300 nL/min flow rate. Mobile phases (A) 0.1% formic acid in water and (B) 0.1% formic acid in ACN were used.
Sample ionizations were performed at a gas flow of 3.0 L/min, temperature of 150 °C and voltage of the capillary at 1600 V. The quadrupole energy was fixed to 5.0 eV and collision chamber energy 7.0 eV, with an ion transfer time of 90 µs. The ions were analyzed in the positive polarity mode in the range 150–2200 m/z, with the acquisition frequency of the 1 Hz spectrum, as well as with the autoMS/MS system.
The collected spectra were analyzed and calibrated using DataAnalysis software (Bruker) and then identified in ProteinScape (Bruker) by the MASCOT server. Protein identification was conducted using the online SwissProt and NCBIprot databases, and their references and biological significance were identified using Reactome.org, String.org and KEGG.

Row | Compound | MIC [1] | MIC [2] | MIC [3] | MIC [4] | MIC [5] | IC50 [6] | IC50 [7] | Protein Intensity, % (PRDX4) ([8]; PC3, 24 h) | Protein Intensity, % (PRDX4) ([8]; SW480, 24 h) | Protein Intensity, % (PRDX4) ([8]; SW620, 24 h) | reduction of PRDX4 intensity ([8]; SW480, IC50 concentration)
1 | O=[N+]([O-])c1cc(NC2=[N+](c3ccc(Cl)c([N+](=O)[O-])c3)[Cu-2]3([S]2)[S]C(Nc2ccc(Cl)c([N+](=O)[O-])c2)=[N+]3c2ccc(Cl)c([N+](=O)[O-])c2)ccc1Cl [Compound 6, Copper (II) complex with 1,3-bis(4-chloro-3-nitrophenyl)thiourea] | 8 µg/mL | 8 µg/mL | 8 µg/mL | 8 µg/mL | 8 µg/mL | 123 ± 2.1 µM | 26.8 ± 2.3 µM | – | – | – | –
2 | O=[N+]([O-])c1cc([N+]2=C(Nc3ccc(Br)cc3)[S][Cu-2]23[S]C(Nc2ccc(Br)cc2)=[N+]3c2ccc(Cl)c([N+](=O)[O-])c2)ccc1Cl [Compound 3, Copper (II) complex with 1-(4-bromophenyl)-3-(4-chloro-3-nitrophenyl)thiourea] | 8 µg/mL | 16 µg/mL | 8 µg/mL | 8 µg/mL | 16 µg/mL | 103 ± 3.2 µM | 11.9 ± 2.1 µM | 61.1% | 60.1% | 76.4% | –
3 | O=[N+]([O-])c1cc([N+]2=C(Nc3ccc(F)c(Cl)c3)[S][Cu-2]23[S]C(Nc2ccc(F)c(Cl)c2)=[N+]3c2ccc(Cl)c([N+](=O)[O-])c2)ccc1Cl [Compound 4, Copper (II) complex with 1-(3-chloro-4-fluorophenyl)-3-(4-chloro-3-nitrophenyl)thiourea] | 4 µg/mL | 4 µg/mL | 4 µg/mL | 4 µg/mL | 4 µg/mL | 121 ± 5.2 µM | 19.2 ± 1.1 µM | – | – | – | –
4 | O=[N+]([O-])c1cc([N+]2=C(Nc3ccccc3F)[S][Cu-2]23[S]C(Nc2ccccc2F)=[N+]3c2ccc(Cl)c([N+](=O)[O-])c2)ccc1Cl [Compound 7, Copper (II) complex with 1-(2-fluorophenyl)-3-(4-chloro-3-nitrophenyl)thiourea] | 32 µg/mL | 32 µg/mL | 32 µg/mL | 32 µg/mL | 32 µg/mL | 138 ± 4.4 µM | 15.5 ± 2.6 µM | 35.7% | 58.3% | 73.0% | 41.7%
5 | O=[N+]([O-])c1cc([N+]2=C(Nc3cccc(Br)c3)[S][Cu-2]23[S]C(Nc2cccc(Br)c2)=[N+]3c2ccc(Cl)c([N+](=O)[O-])c2)ccc1Cl [Compound 2, Copper (II) complex with 1-(3-bromophenyl)-3-(4-chloro-3-nitrophenyl)thiourea] | 16 µg/mL | 16 µg/mL | 16 µg/mL | 16 µg/mL | 16 µg/mL | 167 ± 2.3 µM | 24.3 ± 2.6 µM | – | – | – | –
6 | O=[N+]([O-])c1cc([N+]2=C(Nc3ccc(Cl)c(Cl)c3)[S][Cu-2]23[S]C(Nc2ccc(Cl)c(Cl)c2)=[N+]3c2ccc(Cl)c([N+](=O)[O-])c2)ccc1Cl [Compound 5, Copper (II) complex with 1-(4-chloro-3-nitrophenyl)-3-(3,4-dichlorophenyl)thiourea] | 32 µg/mL | 32 µg/mL | 32 µg/mL | 32 µg/mL | 32 µg/mL | 165 ± 4.7 µM | 20.6 ± 2.1 µM | – | – | – | –
7 | O=[N+]([O-])c1cc([N+]2=C(Nc3ccc(I)cc3)[S][Cu-2]23[S]C(Nc2ccc(I)cc2)=[N+]3c2ccc(Cl)c([N+](=O)[O-])c2)ccc1Cl [Compound 8, Copper (II) complex with 1-(4-iodophenyl)-3-(4-chloro-3-nitrophenyl)thiourea] | 4 µg/mL | 4 µg/mL | 4 µg/mL | 4 µg/mL | 4 µg/mL | 103 ± 3.4 µM | 3.9 ± 0.8 µM | 30.8% | 78.2% | 93.9% | –
8 | O=[N+]([O-])c1cc([N+]2=C(Nc3ccccc3Br)[S][Cu-2]23[S]C(Nc2ccccc2Br)=[N+]3c2ccc(Cl)c([N+](=O)[O-])c2)ccc1Cl [Compound 1, Copper (II) complex with 1-(2-bromophenyl)-3-(4-chloro-3-nitrophenyl)thiourea] | 8 µg/mL | 8 µg/mL | 8 µg/mL | 8 µg/mL | 8 µg/mL | 110 ± 3.4 µM | 4.7 ± 0.3 µM | 72.6% | 67.6% | 79.4% | –
